Data taken from patent US20070042448A1, “Use of enzymes from Helicobacter pylori as therapeutical targets” (priority 2005, published 2007).
Converted amounts (≈) assume the structure as drawn. Like-named read-outs stand apart in the source and are kept apart here. Positions of bridges follow the written chain, without caps; N, C: chain ends. Non-standard residues stand in square brackets, D forms with d. Residues, ends and D or L forms follow the SMILES beside them. *: point of attachment. Ileψ(thiazoline)Cys = CC[C@H](C)[C@H](N)C1=N[C@H](C(=O)*)CS1; dOrn = NCCC[C@@H](N)C(=O)O

Key:
H. pylori strain 26695 [1] = assay: Minimum inhibitory concentration (MIC) on plates, parental strain; assay type: cell-based, Helicobacter pylori
From the text: (§1) Minimal Inhibitory Concentration (MIC). To determine the MIC for amoxicillin, suspensions of H. pylori estimated to contain […] bacteria/ml (OD600 nm of 0.1) were serially diluted and grown on plates containing various concentrations of amoxicillin. The MIC was defined as the amoxicillin concentration leading to a decrease of 3 log of CFU/ml as compared to growth without amoxicillin.
(§2) To determine the MIC of different antibiotics, suspensions of H. pylori estimated to contain 10^8 bacteria/ml (OD600 nm of 0.1) were serially diluted and grown on plates containing various concentrations of amoxicillin. The MIC was defined as the minimal concentration leading to a decrease of 3 log of CFU/ml as compared to growth without antibiotic. Minimum bactericidal concentration (MBC) for amoxicillin was done as follow. Bacteria were grown in increasing concentrations of amoxicillin in liquid culture and OD600 nm was monitored. After 18 hours, CFU/ml counts were determined for each amoxicillin concentration. MBC was defined as the concentration leading to a 3 log decrease of CFU/ml as compared as growth without amoxicillin.

[2] = tested on: H. pylori 26695 amiA mutant; assay: Minimum inhibitory concentration (MIC) on plates, amiA mutant; assay type: cell-based, Helicobacter pylori
From the text: as §1, §2

human Nod2 = molecular target: T1, human Nod2 (Homo sapiens, UniProt Q9HC29); assay: Nod2-dependent NF-κB luciferase activation in transfected HEK293T cells; assay type: cell-based; details: HEK293T cells transfected with hNod2 and luciferase reporter; FIG. 4D
T1 construct: host or cells: HEK293T
From the text: Expression Plasmids, Transient Transfections and NF-κB Activation Assays. The expression plasmid for FLAG-tagged hNod1 was from Gabriel Nuñez (University of Michigan Medical School, Ann Arbor, Mich.) and has been described previously. The expression plasmid for hNod2 was from Gilles Thomas (Foundation Jean Dausset/CEPH, Paris, France). HEK293T cells were used for transfections as described previously. Synergistic activation of NF-κB by PGs, muramyl peptides, and related compounds in cells over-expressing Nod1 or Nod2 was studied as described by Inohara et al.. Briefly, HEK293T cells were transfected overnight with 10 ng of hNod1 or 30 ng of hNod2 plus 75 ng of Ig luciferase reporter plasmid. PG samples (0.1 μg/ml) were digested with 0.25 μg/μl mutanolysin. At the same time, 0.3 μg of PG preparations or 10 pmol of muramyl-peptides were added to the cell culture medium, and synergistic NF-κB-dependent luciferase activation was measured after 24 h of co-incubation. NF-κB-dependent luciferase assays were performed in duplicate, and data reported represent at least three independent experiments. Data was standardized with positive controls: M-dipeptide for hNod2 and M-tripeptide for hNod1. hNod1 and hNod2 were activated with H. pylori PG (0.3 μg/ml) digested with M1 or Slt70 as previously described.

[3] = tested on: H. pylori 26695 amiA mutant; assay: Minimum bactericidal concentration (MBC) in liquid culture, amiA mutant; assay type: cell-based, Helicobacter pylori; details: 18 hours, maximum concentration tested 32 μg/ml
Description: as §2

[4] = tested on: H. pylori 26695 amiA− complemented; assay: Minimum inhibitory concentration (MIC) on plates, complemented amiA mutant; assay type: cell-based; details: Helicobacter pylori, read-out: MIC (μg/ml of amoxicillin)
Description: as §2

H. pylori strain 26695 [5] = assay: Minimum bactericidal concentration (MBC) in liquid culture, parental strain; assay type: cell-based, Helicobacter pylori
Description: as §2

[6] = tested on: H. pylori 26695 amiA− complemented; assay: Minimum bactericidal concentration (MBC) in liquid culture, complemented amiA mutant; assay type: cell-based, Helicobacter pylori
Description: as §2

H. pylori strain 26695 [7] = assay: Morphological transition into coccoid forms after amoxicillin (scanning electron microscopy), parental strain; assay type: cell-based, Helicobacter pylori; details: 3-4 h exposure to amoxicillin (10 μg/ml) after 18 h of growth without antibiotic
Description: (§3) Some stress signals, including amoxicillin treatment, can induce the morphological transition into coccoid forms. The inventors investigated the response of the ami A mutant to amoxicillin. First the inventors determined the MIC of amoxicillin: it was identical for the ami A mutant and the parental strain 26695 (0.06 μg/ml). After overnight culture, 10 μg/ml of amoxicillin was added to the media and after three hours of antibiotic treatment bacteria were observed by scanning electron microscopy. […] Thus, AmiA is required both for PG modifications and morphological transition.
(§4) For scanning electron microscopy (SEM), samples were washed in PBS, prefixed in 2.5% glutaraldehyde in 0.1M cacodylate buffer for 30 minutes and then rinsed in 0.2M cacodylate buffer. After post-fixation in 1% osmium tetraoxide (in 0.2M cacodylate buffer), bacteria were dehydrated in a series of ethanol concentrations. Specimens were critical-point dried using carbon dioxide, then coated with gold and examined with a JEOL JSM-6700F SEM.

[8] = tested on: H. pylori 26695 amiA mutant; assay: Morphological transition into coccoid forms after amoxicillin (scanning electron microscopy), amiA mutant; assay type: cell-based, Helicobacter pylori
Description: as §3, §4

[9] = Helicobacter pylori, other antibiotics, read-out: MIC

T1 sequence (Q9HC29 whole entry): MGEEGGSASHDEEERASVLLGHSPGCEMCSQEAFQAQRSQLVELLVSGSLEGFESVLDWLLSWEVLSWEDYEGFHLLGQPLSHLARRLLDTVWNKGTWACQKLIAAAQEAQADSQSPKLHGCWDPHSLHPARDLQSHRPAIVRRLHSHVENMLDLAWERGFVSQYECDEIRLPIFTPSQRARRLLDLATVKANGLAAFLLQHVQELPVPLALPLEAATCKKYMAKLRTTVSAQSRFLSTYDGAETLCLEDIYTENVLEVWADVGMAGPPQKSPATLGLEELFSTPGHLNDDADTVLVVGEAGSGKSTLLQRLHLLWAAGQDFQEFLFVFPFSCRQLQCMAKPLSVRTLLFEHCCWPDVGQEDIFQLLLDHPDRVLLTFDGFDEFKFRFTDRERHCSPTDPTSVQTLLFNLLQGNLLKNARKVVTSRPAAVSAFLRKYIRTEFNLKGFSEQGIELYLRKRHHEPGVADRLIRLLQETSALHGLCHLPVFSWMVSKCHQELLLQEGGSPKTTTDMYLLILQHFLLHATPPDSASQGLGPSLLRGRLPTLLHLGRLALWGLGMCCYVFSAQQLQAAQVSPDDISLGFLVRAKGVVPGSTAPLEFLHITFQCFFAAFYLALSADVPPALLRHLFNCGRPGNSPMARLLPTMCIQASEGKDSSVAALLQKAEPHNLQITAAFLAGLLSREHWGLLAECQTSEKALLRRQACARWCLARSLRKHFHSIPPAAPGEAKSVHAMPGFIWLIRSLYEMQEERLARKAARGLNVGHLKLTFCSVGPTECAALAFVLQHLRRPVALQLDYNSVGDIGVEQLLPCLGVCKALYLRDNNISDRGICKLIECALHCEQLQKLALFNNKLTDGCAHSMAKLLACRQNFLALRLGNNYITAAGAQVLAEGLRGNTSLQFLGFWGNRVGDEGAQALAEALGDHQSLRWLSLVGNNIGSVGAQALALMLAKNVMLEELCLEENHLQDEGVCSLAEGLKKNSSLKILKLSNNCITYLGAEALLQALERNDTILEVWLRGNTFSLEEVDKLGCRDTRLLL

Structure (SMILES): CC[C@H](C)[C@H](N)C1=N[C@H](C(=O)N[C@@H](CC(C)C)C(=O)N[C@H](CCC(=O)O)C(=O)N[C@H](C(=O)N[C@H]2CCCCNC(=O)[C@H](CC(N)=O)NC(=O)[C@@H](CC(=O)O)NC(=O)[C@H](Cc3cnc[nH]3)NC(=O)[C@@H](Cc3ccccc3)NC(=O)[C@H]([C@@H](C)CC)NC(=O)[C@@H](CCCN)NC2=O)[C@@H](C)CC)CS1 [Bacitracin] ({Ileψ(thiazoline)Cys}-L[dE]IK[dOrn]I[dF]H[dD]N; lactam 4-C)
- MIC (H. pylori strain 26695 [1]; [9]): > 1000 µg/mL
- MIC ([2]; Helicobacter pylori): > 1000 µg/mL

Structure (SMILES): CC(=O)NC1C(OC2C(CO)OC(O)C(NC(C)=O)C2OC(C)C(=O)NC(C)C(=O)NC(CCC(=O)O)C(=O)O)OC(CO)C(O)C1O [GM-dipeptide, N-acetyl-D-glucosminyl-β(1,4)-N-acetylmuramyl-L-Ala-D-Glu]
- Nod2-dependent activation of NF-κB (human Nod2): detected via Nod2 in a dose dependent manner

Structure (SMILES): CN[C@H](CC(C)C)C(=O)N[C@H]1C(=O)N[C@@H](CC(N)=O)C(=O)N[C@H]2C(=O)N[C@H]3C(=O)N[C@H](C(=O)N[C@H](C(=O)O)c4cc(O)cc(O)c4-c4cc3ccc4O)[C@H](O)c3ccc(c(Cl)c3)Oc3cc2cc(c3O[C@@H]2O[C@H](CO)[C@@H](O)[C@H](O)[C@H]2O[C@H]2C[C@](C)(N)[C@H](O)[C@H](C)O2)Oc2ccc(cc2Cl)[C@H]1O [Vancomycin]
- MIC (H. pylori strain 26695 [1]; [9]): > 1000 µg/mL
- MIC ([2]; Helicobacter pylori): > 1000 µg/mL

Structure (SMILES): CC1(C)S[C@@H]2[C@H](NC(=O)[C@H](N)c3ccc(O)cc3)C(=O)N2[C@H]1C(=O)O [amoxicillin]
- MIC (H. pylori strain 26695 [1]; Helicobacter pylori, 3 log decrease of CFU/ml, read-out: MIC (μg/ml of amoxicillin)): 0.06 µg/mL
- MCB (μg/ml of amoxicillin) [3]: >32 µg/mL
- MIC [4]: 0.125 µg/mL
- Ratio MBC/MIC (H. pylori strain 26695 [5]): 1
- MCB (μg/ml of amoxicillin) (H. pylori strain 26695 [5]; liquid culture, 18 hours, 3 log decrease of CFU/ml): 0.06 µg/mL
- Ratio MBC/MIC [6]: 2
- MCB (μg/ml of amoxicillin) ([6]; liquid culture, 18 hours): 0.250 µg/mL
- % of coccoids (includes U and donut forms) (H. pylori strain 26695 [7]): 56.64%
- Morphology of amiA mutant after amoxicillin ([8]; 10 μg/ml amoxicillin, three hours, after overnight culture, scanning electron microscopy): formed chains of spherical bacteria
- % of coccoids (includes U and donut forms) ([8]; 26695 amiA−, 3-4 h exposure to amoxicillin (10 μg/ml) after 18 h of growth without antibiotic): 32.60%
- Coccoid formation of amiA mutant after amoxicillin ([8]; exposure to 100 times its MIC): still induced coccoid formation
- MIC ([2]; Helicobacter pylori, read-out: MIC (μg/ml of amoxicillin)): 0.06 µg/mL

Structure (SMILES): Cc1ncc([N+](=O)[O-])n1CCO [Metronidazole]
- MIC (H. pylori strain 26695 [1]; [9]): 1 µg/mL (≈ 5.84 µM)
- MIC ([2]; Helicobacter pylori): 1 µg/mL (≈ 5.84 µM)

Structure (SMILES): CCn1cc(C(=O)O)c(=O)c2ccc(C)nc21 [Nalidixic acid]
- MIC (H. pylori strain 26695 [1]; [9]): 30 µg/mL (≈ 129 µM)
- MIC ([2]; Helicobacter pylori): 30 µg/mL (≈ 129 µM)

Structure (SMILES): COc1cc(Cc2cnc(N)nc2N)cc(OC)c1OC [Trimethroprime]
- MIC (H. pylori strain 26695 [1]; other antibiotics): >100 µg/mL
- MIC ([2]; 26695 amiA mutant, other antibiotics): >100 µg/mL

Structure (SMILES): [H]/N=C(/N)N[C@H]1[C@H](O)[C@@H](O)[C@H](O[C@@H]2O[C@@H](C)[C@](O)(C=O)[C@H]2O[C@@H]2O[C@@H](CO)[C@H](O)[C@@H](O)[C@@H]2NC)[C@@H](N/C(N)=N\[H])[C@@H]1O [Streptomycin]
- MIC (H. pylori strain 26695 [1]; [9]): 1 µg/mL (≈ 1.72 µM)
- MIC ([2]; Helicobacter pylori): 1 µg/mL (≈ 1.72 µM)
